# Experimental data reported in patent publication US8791132B2, “Compounds and methods for treatment of hypertension” (Medivation Technologies, Inc., priority 2011, dated 2014).
# Read-outs that look alike come from different tables or passages of the source.
# What was measured:
# [1] = target: T1, rat adrenergic α1B receptor (Rattus norvegicus, UniProt P15823); assay: Radioligand binding, adrenergic α1B ([3H]Prazosin); conditions: for Percentage inhibition of ligand binding, Adrenergic α1B (0.1 μM) / Percentage inhibition of ligand binding, Adrenergic α1B: 0.1 µM
# T1 construct: rat adrenergic α1B receptor obtained from Wistar Rat liver; from tissue; host or cells: Wistar rat liver
# T1 sequence (P15823 1-515): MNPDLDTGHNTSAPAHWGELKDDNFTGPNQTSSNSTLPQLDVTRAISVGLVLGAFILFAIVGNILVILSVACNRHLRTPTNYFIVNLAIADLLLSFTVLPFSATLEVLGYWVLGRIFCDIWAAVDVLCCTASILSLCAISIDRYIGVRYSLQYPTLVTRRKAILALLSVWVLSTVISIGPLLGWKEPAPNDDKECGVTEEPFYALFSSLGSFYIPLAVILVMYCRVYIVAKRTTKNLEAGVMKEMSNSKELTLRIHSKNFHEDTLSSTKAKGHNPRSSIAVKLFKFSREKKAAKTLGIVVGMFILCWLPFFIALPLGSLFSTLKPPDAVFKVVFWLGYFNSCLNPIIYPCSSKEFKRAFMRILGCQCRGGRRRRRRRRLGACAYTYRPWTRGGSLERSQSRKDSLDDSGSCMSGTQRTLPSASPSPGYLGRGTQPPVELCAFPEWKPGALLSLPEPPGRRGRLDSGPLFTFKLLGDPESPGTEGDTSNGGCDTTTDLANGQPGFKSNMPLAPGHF
# How it was run: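 Rat α1B receptor from Wistar rat liver was incubated with 0.25 nM [3H]prazosin for 60 min at 25 °C in 50 mM Tris-HCl, pH 7.4, 0.5 mM EDTA. Non-specific binding was defined with 10 μM phentolamine. Bound radioligand was measured by filtration and counting, reported as percent inhibition of specific binding.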
# [2] = target: T2, human recombinant adrenergic α2A receptor (Homo sapiens, UniProt P08913); assay: Radioligand binding, adrenergic α2A ([3H]MK-912); conditions: for Percentage inhibition of ligand binding, Adrenergic α2A (0.1 μM) / Percentage inhibition of ligand binding, Adrenergic α2A: 0.1 µM
# T2 construct: expressed in transfected cells; host or cells: insect Sf9 cells
# T2 sequence (P08913 1-465): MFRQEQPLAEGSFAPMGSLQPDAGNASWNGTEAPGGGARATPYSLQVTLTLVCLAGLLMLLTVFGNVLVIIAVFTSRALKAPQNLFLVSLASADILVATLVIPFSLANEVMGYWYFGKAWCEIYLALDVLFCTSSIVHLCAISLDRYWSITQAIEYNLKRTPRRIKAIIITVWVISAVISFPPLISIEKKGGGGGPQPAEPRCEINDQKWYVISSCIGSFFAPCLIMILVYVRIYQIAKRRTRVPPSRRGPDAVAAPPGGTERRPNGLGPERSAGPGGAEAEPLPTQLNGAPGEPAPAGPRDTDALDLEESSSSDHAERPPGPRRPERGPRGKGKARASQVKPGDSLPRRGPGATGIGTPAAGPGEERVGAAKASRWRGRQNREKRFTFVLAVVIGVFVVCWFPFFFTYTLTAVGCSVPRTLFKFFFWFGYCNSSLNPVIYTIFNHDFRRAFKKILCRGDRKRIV
# How it was run: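 Receptor expressed in Sf9 cells, in 50 mM Tris-HCl pH 7.4, 12.5 mM MgCl2, 2 mM EDTA; compounds incubated with 1 nM [3H]MK-912 for 60 min at 25 °C.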
# [3] = target: T3, human recombinant adrenergic α2B receptor (Homo sapiens, UniProt P18089); assay: Radioligand binding, adrenergic α2B ([3H]Rauwolscine); conditions: for Percentage inhibition of ligand binding, Adrenergic α2B (0.03 μM) / Percentage inhibition of ligand binding, Adrenergic α2B: 0.03 µM
# T3 construct: expressed in transfected cells; host or cells: CHO-K1
# T3 sequence (P18089 1-450): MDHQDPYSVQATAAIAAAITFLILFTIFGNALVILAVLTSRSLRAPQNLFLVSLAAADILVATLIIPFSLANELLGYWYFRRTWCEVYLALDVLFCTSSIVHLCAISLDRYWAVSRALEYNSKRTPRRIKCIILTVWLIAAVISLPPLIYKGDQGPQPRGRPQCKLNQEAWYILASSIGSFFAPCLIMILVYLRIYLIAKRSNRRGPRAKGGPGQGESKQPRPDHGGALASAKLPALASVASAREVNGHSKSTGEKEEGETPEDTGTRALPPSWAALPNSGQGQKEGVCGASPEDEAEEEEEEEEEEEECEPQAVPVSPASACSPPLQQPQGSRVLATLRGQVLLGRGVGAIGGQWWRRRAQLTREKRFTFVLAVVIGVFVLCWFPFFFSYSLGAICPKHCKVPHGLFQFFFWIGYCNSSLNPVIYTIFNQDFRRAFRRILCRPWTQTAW
# How it was run: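 Readout: percent inhibition of specific [3H]Rauwolscine binding, measured by filtration and counting. Conditions: CHO-K1 cell-expressed receptor, 2.5 nM radioligand, 60 min, 25° C, Tris-HCl pH 7.4 buffer with MgCl2, EDTA, BSA. Non-specific binding: 10 μM Prazosin.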
# [4] = compound at 0.1 μM, [3H]Prazosin, repeat datapoints each shown
# [5] = compound at 0.1 μM, [3H]MK-912, repeat datapoints each shown
# [6] = compound at 0.03 μM, [3H]Rauwolscine, repeat datapoints each shown
# [7] = read-out: Percentage inhibition of ligand binding, Adrenergic α1B (0.1 μM), compound at 0.1 μM, [3H]Prazosin, repeat datapoints each shown
# [8] = read-out: Percentage inhibition of ligand binding, Adrenergic α2A (0.1 μM), compound at 0.1 μM, [3H]MK-912, repeat datapoints each shown
# [9] = read-out: Percentage inhibition of ligand binding, Adrenergic α2B (0.03 μM), compound at 0.03 μM, [3H]Rauwolscine, repeat datapoints each shown
# [10] = 0.1 μM compound, read-out: Percentage inhibition of ligand binding, Adrenergic α1B
# [11] = 0.1 μM compound, read-out: Percentage inhibition of ligand binding, Adrenergic α2A
# [12] = 0.03 μM compound, read-out: Percentage inhibition of ligand binding, Adrenergic α2B
# [13] = compound at 0.1 μM, [3H]Prazosin, repeat assays, each datapoint shown
# [14] = compound at 0.1 μM, [3H]MK-912, repeat assays, each datapoint shown
# [15] = compound at 0.03 μM, [3H]Rauwolscine, repeat assays, each datapoint shown
compound,measurement,setting,value
"Cc1cnc2c(c1)c1c(n2CC(C)(O)c2ccc(F)cc2)CCN2CCCC12 (single isomer, unassigned) [II-149d, 2-(4-fluoro-phenyl)-1-(9-methyl-1,2,3,4,5,10c-hexahydro-3a,6,7-triazacyclopenta[c]fluoren-6-yl)-propan-2-ol]","Percentage inhibition of ligand binding, Adrenergic α1B (0.1 μM)",[1]; [4],41%
same,"Percentage inhibition of ligand binding, Adrenergic α2A (0.1 μM)",[2]; [5],7%
same,"Percentage inhibition of ligand binding, Adrenergic α2B (0.03 μM)",[3]; [6],44%
"Cc1ccc2c(c1)c1c(n2CC(OCC(=O)O)c2ccncc2)CCN2CCCC12 (stereo not drawn) [V-15, 2-(2-(10-methyl-2,3,5,6-tetrahydro-1H-indolizino[7,8-b]indol-7(11cH)-yl)-1-(pyridin-4-yl)ethoxy)acetic acid]",inhibition at 0.1 µM,[1]; [7],4%
same,inhibition at 0.1 µM,[2]; [8],7%
same,inhibition at 0.03 µM,[3]; [9],20%
"Cc1ccc2c(c1)c1c(n2CC(C)(O)c2cccnc2)CCN2CCCC12 (single isomer, unassigned) [II-127b, 1-(9-methyl-1,2,3,4,5,10c-hexahydro-3a,6-diaza-cyclopenta[c]fluoren-6-yl)-2-pyridin-3-yl-propan-2-ol]","Percentage inhibition of ligand binding, Adrenergic α1B (0.1 μM)",[1]; [4],65%
same,"Percentage inhibition of ligand binding, Adrenergic α2A (0.1 μM)",[2]; [5],54%
same,"Percentage inhibition of ligand binding, Adrenergic α2B (0.03 μM)",[3]; [6],104%
CC(O)(Cn1c2c(c3cc(CO)ccc31)CNCC2)c1cccnc1 (stereo not drawn) [II-104],inhibition at 0.1 µM,[1]; [10],3%
same,inhibition at 0.1 µM,[2]; [11],10%
same,inhibition at 0.03 µM,[3]; [12],21%
"CC(O)(Cn1c2c(c3cc(Cl)ccc31)C1CCCN1CC2)c1cccnc1 (single isomer, unassigned) [II-130a, 1-(10-chloro-2,3,5,6-tetrahydro-1H-indolizino[7,8-b]indol-7(11cH)-yl)-2-(pyridin-3-yl)propan-2-ol]","Percentage inhibition of ligand binding, Adrenergic α1B (0.1 μM)",[1]; [4],92%
same,"Percentage inhibition of ligand binding, Adrenergic α2A (0.1 μM)",[2]; [5],86%
same,"Percentage inhibition of ligand binding, Adrenergic α2B (0.03 μM)",[3]; [6],103%
"Cc1ccc2c(c1)c1c(n2CC(C)(O)c2ccncc2)CN(C)CC1 (single isomer, unassigned) [19b, 1-(2,6-dimethyl-1,2,3,4-tetrahydro-β-carbolin-9-yl)-2-pyridin-4-yl-propan-2-ol]","Percentage inhibition of ligand binding, Adrenergic α1B",[1]; [13],62%
same,"Percentage inhibition of ligand binding, Adrenergic α2A",[2]; [14],9%
same,"Percentage inhibition of ligand binding, Adrenergic α2B",[3]; [15],27%
Cc1ccc2c(c1CO)c1c(n2CC(C)(O)c2cccnc2)CCN(C)C1 (stereo not drawn) [II-153],inhibition at 0.1 µM,[1]; [7],2%
same,inhibition at 0.1 µM,[2]; [8],2%
same,inhibition at 0.03 µM,[3]; [9],7%
"CN1CCc2c(c3cc(CO)ccc3n2CC(O)c2ccncc2)C1 (stereo not drawn) [II-60, 2-(8-hydroxymethyl-2-methyl-1,2,3,4-tetrahydro-pyrido[4,3-b]indol-5-yl)-1-pyridin-4-yl-ethanol]",inhibition at 0.1 µM,[1]; [10],11%
same,inhibition at 0.1 µM,[2]; [11],9%
same,inhibition at 0.03 µM,[3]; [12],54%
"Cc1ccc2c(c1)c1c(n2C(C)C(O)c2ccccc2)CCN(C)C1 (single isomer, unassigned) [II-95b, 2-(2,8-dimethyl-1,2,3,4-tetrahydro-pyrido[4,3-b]indol-5-yl)1-phenyl-propan-1-ol]","Percentage inhibition of ligand binding, Adrenergic α1B",[1]; 0.1 μM compound,−1%
same,"Percentage inhibition of ligand binding, Adrenergic α2A",[2]; 0.1 μM compound,−1%
same,"Percentage inhibition of ligand binding, Adrenergic α2B",[3]; 0.03 μM compound,12%
"Cc1ccc2c(c1)c1c(n2CC(O)c2ccncc2Cl)CCN(C)C1 (single isomer, unassigned) [135a]","Percentage inhibition of ligand binding, Adrenergic α1B (0.1 μM)",[1]; [4],60%
same,"Percentage inhibition of ligand binding, Adrenergic α2A (0.1 μM)",[2]; [5],4%
same,"Percentage inhibition of ligand binding, Adrenergic α2B (0.03 μM)",[3]; [6],42%
"CC(C)(O)CCN1CCc2c(c3cc(Cl)ccc3n2CC(O)c2ccncc2)C1 (single isomer, unassigned) [11b, 4-[8-chloro-5-(2-hydroxy-2-pyridin-4-yl-ethyl)-1,3,4,5-tetrahydro-pyrido[4,3-b]indol-2-yl]-2-methyl-butan-2-ol]","Percentage inhibition of ligand binding, Adrenergic α1B",[1]; [13],18%
same,"Percentage inhibition of ligand binding, Adrenergic α2A",[2]; [14],13%
same,"Percentage inhibition of ligand binding, Adrenergic α2B",[3]; [15],64%
"COc1ccc(C(C)(O)Cn2c3c(c4cc(C)ccc42)CN(C)CC3)cn1 (stereo not drawn) [compound 64, 1-(2,8-dimethyl-1,2,3,4-tetrahydro-pyrido[4,3-b]indol-5-yl)-2-(6-methoxy-pyridin-3-yl)-propan-2-ol]",inhibition at 0.1 µM,"[1]; compound at 0.1 μM, [3H]Prazosin, repeat assays, each datapoint shown, read-out: Percentage inhibition of ligand binding, Adrenergic α1B",25%
same,inhibition at 0.1 µM,"[2]; compound at 0.1 μM, [3H]MK-912, repeat assays, each datapoint shown, read-out: Percentage inhibition of ligand binding, Adrenergic α2A",12%
same,inhibition at 0.03 µM,"[3]; compound at 0.03 μM, [3H]Rauwolscine, repeat assays, each datapoint shown, read-out: Percentage inhibition of ligand binding, Adrenergic α2B",62%
"CN1CCc2c(c3cccc(Br)c3n2CC(O)c2ccncc2)C1 (single isomer, unassigned) [48b]","Percentage inhibition of ligand binding, Adrenergic α1B",[1]; [13],14%
same,"Percentage inhibition of ligand binding, Adrenergic α2A",[2]; [14],17%
same,"Percentage inhibition of ligand binding, Adrenergic α2B",[3]; [15],86%
"Cc1ccc2c(c1)c1c(n2CC(C)(O)c2ccc(C)nc2)CN(C)CC1 (single isomer, unassigned) [196a]",inhibition at 0.03 µM,"[1]; read-out: Percentage inhibition of ligand binding, Adrenergic α1B (0.03 μM), compound at 0.03 μM, [3H]Prazosin, repeat datapoints each shown",30%
same,inhibition at 0.1 µM,[1]; [7],54.6%
same,Ki,[2],16.8 nM
same,"Percentage inhibition of ligand binding, Adrenergic α2A (0.1 μM)",[2]; [5],71%
same,inhibition at 0.03 µM,"[2]; read-out: Percentage inhibition of ligand binding, Adrenergic α2A (0.03 μM), compound at 0.03 μM, [3H]MK-912, repeat datapoints each shown",37%
same,inhibition at 0.1 µM,[2]; [8],58%
same,"Percentage inhibition of ligand binding, Adrenergic α2B (0.03 μM)",[3]; [6],103%
same,Ki,[3]; read-out: Ki α2B,1.83 nM
same,inhibition at 0.03 µM,[3]; [9],93%
"Cc1ccc(C(O)Cn2c3c(c4cc(C)ccc42)CN(C)CC3)cc1 (stereo not drawn) [183a, 2-(1,2,3,4-tetrahydro-2,8-dimethylpyrido[4,3-b]indol-5-yl)-1-p-tolylethanol]",inhibition at 0.1 µM,[1]; [7],77%
same,inhibition at 0.1 µM,[2]; [8],56%
same,inhibition at 0.03 µM,[3]; [9],82%
